#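 Briefly, cells in 96-well plates were exposed to five compound concentrations for 48 h, and endpoints were estimated by linear interpolation. Abbreviation: GI50, concentration required for 50% inhibition of growth.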 The source made the active and inactive calls. Cut-off read from the data, not from the text of the source: active = GI50 up to about 1.1 µM and inactive = higher.
# How the values were obtained:
# Assay in all cases: inhibition of tumour cell growth, NCI panel, 48 h
# [1] = system: CCRF-CEM
# [2] = system: OVCAR-3
# [3] = system: KM12
# [4] = system: COLO 205
# [5] = system: HCC 2998
# [6] = system: MCF7
# [7] = system: A498
# [8] = system: M14
# [9] = system: NCI-H460
# [10] = system: MDA-MB-435
# [11] = system: SNB-19
# [12] = system: UO-31
# [13] = system: OVCAR-5
# [14] = system: ACHN
# [15] = system: HL-60
# [16] = system: HCT-15
# [17] = system: HOP-62
# [18] = system: T47D
# [19] = system: PC-3
# [20] = system: MDA-MB-231
SMILES,GI50 [1],GI50 [2],GI50 [3],GI50 [4],GI50 [5],GI50 [6],GI50 [7],GI50 [8],GI50 [9],GI50 [10],GI50 [11],GI50 [12],GI50 [13],GI50 [14],GI50 [15],GI50 [16],GI50 [17],GI50 [18],GI50 [19],GI50 [20]
N#C[C@H]1C(=O)C(c2nc3ccccc3[nH]2)S[C@H]1c1ccccc1 (stereo not given in full),38.4 µM (inactive),31 µM (inactive),44.2 µM (inactive),51.5 µM (inactive),50 µM (inactive),28.4 µM (inactive),22.1 µM (inactive),33.3 µM (inactive),35.1 µM (inactive),35 µM (inactive),45.4 µM (inactive),26.9 µM (inactive),92.9 µM (inactive),20 µM (inactive),25.4 µM (inactive),38 µM,,,,
Cc1c2ccncc2c(C)c2c1[nH]c1ccc(Cl)cc12,1.36 µM (inactive),2.2 µM (inactive),1.86 µM (inactive),2.16 µM (inactive),7.76 µM (inactive),2.17 µM (inactive),4.46 µM (inactive),4.57 µM (inactive),1.54 µM (inactive),,2.35 µM (inactive),3.56 µM (inactive),7.05 µM (inactive),1.26 µM (inactive),2.11 µM (inactive),1.75 µM,3.85 µM (inactive),,,
CC(=O)N1C(OCc2ccccc2)CCN1c1ccccc1 (stereo not given),> 10 µM (inactive),> 10 µM (inactive),,> 10 µM (inactive),,,,> 10 µM (inactive),> 10 µM (inactive),> 10 µM (inactive),> 10 µM (inactive),> 10 µM (inactive),> 10 µM (inactive),> 10 µM (inactive),> 10 µM (inactive),> 10 µM,> 10 µM (inactive),> 10 µM (inactive),> 10 µM (inactive),> 10 µM (inactive)
[O-][S+](CC1(O)CCCCC1)c1ccccc1 (stereo not given),> 100 µM (inactive),,> 100 µM (inactive),> 100 µM (inactive),> 100 µM (inactive),> 100 µM (inactive),,> 100 µM (inactive),> 100 µM (inactive),,> 100 µM (inactive),> 100 µM (inactive),> 100 µM (inactive),> 100 µM (inactive),> 100 µM (inactive),> 100 µM,> 100 µM (inactive),> 100 µM (inactive),> 100 µM (inactive),> 100 µM (inactive)
CC[C@@]1(OC(=O)CN(C)C)C(=O)OCc2c1cc1n(c2=O)Cc2cc3ccccc3nc2-1,0.00256 µM (active),0.32 µM (active),0.223 µM (active),0.394 µM (active),0.145 µM (active),0.00853 µM (active),0.205 µM (active),0.0525 µM (active),0.00533 µM (active),0.194 µM (active),0.0208 µM (active),0.0296 µM (active),0.247 µM (active),0.00875 µM (active),0.0105 µM (active),0.228 µM,0.0234 µM (active),,0.0973 µM (active),3.27 µM (inactive)
COc1cc2c(c(OC)c1OC)-c1ccc(OC)c(=O)cc1C(NC(=O)c1ccc(N=[N+]=[N-])cc1)CC2 (stereo not given),0.0316 µM (active),0.0255 µM (active),0.0234 µM (active),0.021 µM (active),0.0215 µM (active),0.0144 µM (active),0.0186 µM (active),0.037 µM (active),0.031 µM (active),0.0134 µM (active),0.0767 µM (active),9.08 µM (inactive),,0.0809 µM (active),0.0272 µM (active),0.111 µM,0.0413 µM (active),> 100 µM (inactive),,0.0352 µM (active)
COC(=O)c1cc(C#N)[nH]c1-c1cccs1,48.6 µM (inactive),56.5 µM (inactive),> 100 µM (inactive),> 100 µM (inactive),> 100 µM (inactive),,37.8 µM (inactive),> 100 µM (inactive),> 100 µM (inactive),> 100 µM (inactive),> 100 µM (inactive),81.8 µM (inactive),> 100 µM (inactive),89.9 µM (inactive),,57.4 µM,47.8 µM (inactive),24.4 µM (inactive),47.1 µM (inactive),52.7 µM (inactive)
O=C1CC2CCN(C(=O)c3ccccc3)CC2CCN1 (stereo not given),> 100 µM (inactive),> 100 µM (inactive),> 100 µM (inactive),> 100 µM (inactive),> 100 µM (inactive),,> 100 µM (inactive),> 100 µM (inactive),> 100 µM (inactive),,> 100 µM (inactive),> 100 µM (inactive),> 100 µM (inactive),> 100 µM (inactive),> 100 µM (inactive),> 100 µM,> 100 µM (inactive),,,
